Source: patent US20250249025A1, “DRUG DELIVERY CARRIER UTILIZING PROPERTY OF D-ALLOSE BEING UPTAKEN BY CANCER CELL, DRUG DELIVERY METHOD, AND COMPOSITION FOR TREATING RENAL CELL CARCINOMA” (NATIONAL UNIVERSITY CORPORATION KAGAWA UNIVERSITY, priority 2019, published 2025)

Key:
[1] = tested on: human bladder carcinoma cell line RT112; test: Rare sugar uptake experiment, sugar content in disrupted cell suspension of RT112; format: cell-based
Protocol: (§1) An uptake amount of a rare sugar, which had been added to a medium, into carcinoma cells was analyzed using the cell lines of three types of cancers. As the rare sugar, four kinds, that is, D-allose, D-allulose (D-psicose), L-allulose (L-psicose), and allitol were used, while D-glucose and fructose were used as a monosaccharide which was not a rare sugar.
(§2) Cells of each of the cell lines were cultured in RPMI-1640 media and during culturing, six sugars were each added to the resulting media and cultured. After culturing, an amount of each sugar taken up into the cells was analyzed. The medium to which no sugar was added during culturing was used as a control.
(§3) Used were human bladder carcinoma cell lines (RT112, 253), and J82), human prostatic carcinoma cell lines (LNCa, Du145, and PC-3), and human renal cell carcinoma cell lines (ACHN, Caki-I, and Caki-II).
(§4) After cells were cultured in RPMI-1640 (2000 mg D-glucose/L) media, the above monosaccharides and rare sugars were added to the resulting media, respectively. Described specifically, they were following seven combinations: RPMI-1640 alone (control), RPMI-1640+D-glucose, RPMI-1640+L-allulose, RPMI-1640+D-allulose, RPMI-1640+D-fructose, RPMI-1640+D-allose, and RPMI-1640+D-allitol. The final concentration of the sugar in the medium was adjusted to 10 mM and no sugar was added in the control.
(§5) Five-ml portions of a 3.0×10^4 cells/ml cell suspension prepared using RPMI-1640 were seeded in dishes having a diameter of 6 cm (1.5×10^5 cells/dish) and cultured for 24 hours in the RPMI-1640 medium containing 2000 mg/l of D-glucose as a nutrient source. Twenty-four hours later, the media were changed to the culture solutions containing the monosaccharides and rare sugars described above in 2), respectively, followed by culturing for 48 hours.
(§6) After culturing for 48 hours, the attached human carcinoma cells were mechanically separated and collected in a Spitz tube together with the culture solution and floating cells. After the supernatant formed by centrifugation (4° C., 1200 rpm, and 5 minutes) was removed to obtain cell pellets alone, 5 ml of a phosphate buffer physiological saline (PBS) was added for the purpose of washing to obtain a cell suspension of the cell pellets. A gain, the resulting cell suspension was centrifuged at 4° C. and 1200 rpm for 5 minutes and the supernatant was removed. To the cell pellets after washing was added 1 ml of pure water to suspend them therein. Ultrasonic disruption (intensity: 40%, 30 seconds) was then performed and the monosaccharide in the disrupted cell suspension was labeled with ABEE, followed by analysis by HPLC. From the area thus obtained, the sugar content in the cells was determined using a calibration curve. With respect to the ketose, two peaks were found after labeling with ABEE so that the sugar content in the cells was determined from the calibration curves of both peaks.

[2] = tested on: human prostate carcinoma cell line LNCa; test: Rare sugar uptake experiment, sugar content in disrupted cell suspension of LNCa; format: cell-based
Protocol: as §1, §2, §3, §4, §5, §6

[3] = tested on: human renal cell carcinoma cell line Caki-I; test: Rare sugar uptake experiment, sugar content in disrupted cell suspension of Caki-I; format: cell-based
Protocol: as §1, §2, §3, §4, §5, §6

[4] = tested on: human carcinoma cell lines; format: cell-based; settings: 48 h, 10 mM
Protocol: as §1, §2
Used were human bladder carcinoma cell lines (RT112, 253), and J82), human prostatic carcinoma cell lines (LNCa, Du145, and PC-3), and human renal cell carcinoma cell lines (ACHN, Caki-I, and Caki-II). […]
After culturing for 48 hours, the attached human carcinoma cells were mechanically separated and collected in a Spitz tube together with the culture solution and floating cells. […] From the area thus obtained, the sugar content in the cells was determined using a calibration curve. With respect to the ketose, two peaks were found after labeling with ABEE so that the sugar content in the cells was determined from the calibration curves of both peaks.

ACHN tumor tissue = test: Tumor tissue histology (necrosis area, nuclear fission), ACHN xenograft mouse model; format: in vivo, mice; settings: day 35
Protocol: The experiment of the present example used two human renal cell carcinoma cell lines (Caki-I and ACHN). Each cell was cultured under the wet environment of 37° C. and 5% CO2 by using a RPMI-1640 culture solution (2000 mg D-glucose/L) containing a 10% fetal calf serum, a HEPES buffer, and penicillin-streptomycin.
With respect to a renal cell carcinoma xenograft mouse model, a 1.0×10^5 cells/ml of a cell suspension was obtained by adjusting the cultured cells with a MEM culture solution and then 0.1 ml of the resulting suspension was injected into the femoral subcutaneous tissue of Female athymic nude mice (BALB/c-nu/nu, 6-week-old). After checking that the tumor volume was 200 mm^3 or more one week after the injection, the mice were provided for the experiment thereafter.
The day when the tumor size of the renal cell carcinoma xenograft mouse models became 200 mm^3 or more was called day 0 and the intraperitoneal injection of a D-allose-containing solution was started from day 1. The solution injected is 0.4 mL of physiological saline or a solution obtained by dissolving 100 mg/kg or 400 mg/kg of D-allose in 0.4 mL physiological saline. The resulting solution was intraperitoneally injected into three groups of mice (Control, 100 mg/kg of D-allose, and 400 mg/kg of D-allose) once a day for 5 weeks in total. The body weight of the mice and the long and short diameters of the tumor were measured over time twice a week. It is to be noted that the tumor volume was obtained as a product of long diameter×short diameter×short diameter of the tumor×0.5. On day 35 after the intraperitoneal injection was started, the tumor as well as the liver and kidney were excised from the mice and provided for the experiment performed thereafter.
The tissue of the excised tumor, kidney, and liver was fixed with a 4% paraformaldehyde phosphate buffer, embedded with paraffin, and sliced into a 4-μm thick section. The resulting sliced section was stained with hematoxylin and eosin and evaluated by a medical specialist in pathology. The influence of D-allose on the tumor tissue was evaluated by a necrosis area (%) and an image of the number of nuclear fissions (Cells/HPF). It is to be noted that the necrosis area was measured using an image recording software Nikon NIS—Elements D and figures after the decimal point were omitted. On the other hand, the number of nuclear fissions was obtained as an average of those of three fields of view and figures after the decimal point were also omitted. The anti-tumor effect of D-allose, more specifically, necrosis area and the number of nuclear fissions in the renal cell carcinoma xenograft mouse model are shown in Table 10.

[5] = Fundamental safety tests (mutagenicity, biodegradability, oral acute toxicity, skin and eye primary irritation); settings: conducted by a designated agency at the inventors' request
Description: With respect to the verification of the safety of D-allose necessary for the use of it as a pharmaceutical ingredient, it was expectable that it was safe because a rare sugar was a monosaccharide present in nature, though its amount was trace. A mutagenicity test, a biodegradability test, and three acute toxicity tests (oral acute toxicity test, skin primary irritation test, and eye primary irritation test) have been determined as the most fundamental safety tests. The present inventors asked a designated agency to conduct the fundamental safety tests of D-allose.

[6] = 100 mg/kg intraperitoneal once a day
[7] = 400 mg/kg intraperitoneal once a day

O=C[C@H](O)[C@H](O)[C@H](O)[C@H](O)CO [D-allose]
D-glucose content in cell ([1]; RT112, named sugar added to RPMI-1640 at 10 mM, 48 hours, HPLC after ABEE labeling): 9.7 µg
Content in cell of the added sugar ([1]; human, 48 h, 10 mM): 0.0 µg
D-glucose content in cell ([2]; LNCa, named sugar added to RPMI-1640 at 10 mM, 48 hours, HPLC after ABEE labeling): 11.2 µg
Content in cell of the added sugar ([2]; human, 48 h, 10 mM): 0.0 µg
D-glucose content in cell ([3]; Caki-I, named sugar added to RPMI-1640 at 10 mM, 48 hours, HPLC after ABEE labeling): 2.1 µg
Content in cell of the added sugar ([3]; human, 48 h, 10 mM): 13.2 µg
Uptake into the cells [4]: found only in one (PC-3) of three human prostate carcinoma cell lines
Necrosis area (ACHN tumor tissue; [6]): 49%
Nuclear fission (ACHN tumor tissue; [6]): 1.2 Cells/HPF
Necrosis area (ACHN tumor tissue; [7]): 69%
Nuclear fission (ACHN tumor tissue; [7]): 0.9 Cells/HPF
Result of fundamental safety tests [5]: no safety problems
